According to BindingDB's records for doi:10.1021/jm00352a016 (1983):

Molecular target: Adenylate kinase 2 (Rattus norvegicus) (UniProt P29410)
Experiment: Inhibitory activity against rat adenylate kinase II (AK-II) isoenzyme was determined in the presence of ATP, non competitive inhibition

Ki: 87 mM
SMILES: Nc1ncnc2c1ncn2[C@@H]1O[C@H](CO)[C@@H](O)[C@H]1O [[U-14C]adenosine]
